Values quoted from earlier work as cited in patent publication US20160302965A1, “IMPLANTABLE THERAPEUTIC DEVICES” (ForSight Vision4, Inc., priority 2013, published 2016).

solubility in PBS at pH 7 (pH 7) | solubility of the prodrug (concentration maintained in the fluid boundary layer) | solubility at pH 7 (pH 7) | SMILES
800 ug/ml | – | – | O=C(O)CCC/C=C\C[C@@H]1[C@@H](CC[C@@H](O)CCc2ccccc2)[C@H](O)C[C@@H]1O [latanoprost free acid]
300 ug/ml | 300 µg/mL | – | CCNC(=O)CCC/C=C\C[C@@H]1[C@@H](/C=C/[C@@H](O)CCc2ccccc2)[C@H](O)C[C@@H]1O [bimatoprost]
– | – | about 600 ug/ml | Brc1c(NC2=NCCN2)ccc2nccnc12 [brimonidine]
50 ug/ml | – | – | CC(C)OC(=O)CCC/C=C\C[C@@H]1[C@@H](CC[C@@H](O)CCc2ccccc2)[C@H](O)C[C@@H]1O [latanoprost]
